# Where two headings read alike, the source gives them in different places. Residues, ends and D or L forms follow the SMILES beside them.
# Tests used:
# [1] = Concentrations of the trace elements in the fermentation residue with different complexing agents; format: physicochemical
# Excerpt: In Table 1 the trace element solution according to the invention contains the complexing agent in a stoichiometric amount of 60% EDTA and 60% of a phosphoric acid mixture relative to the overall amount of trace elements, which is composed of identical molar amounts of pyrophosphoric acid (H4P2O7), polyphosphoric acid (H6P4O13), metaphosphoric acid (H4P4O12), hypophosphoric Acid (H3PO2) and phosphorus acid (phosphonic acid) (H3PO3).
# [2] = as above; format: physicochemical; remark: listed apart in the source
# [3] = cited from earlier work
# [4] = cited from earlier work; remark: listed apart in the source
# [5] = cited from earlier work; remark: listed apart in the source
# [6] = cited from earlier work; remark: listed apart in the source
# [7] = cited from earlier work; remark: listed apart in the source
# [8] = cited from earlier work; remark: listed apart in the source
# [9] = cited from earlier work; remark: listed apart in the source
# [10] = cited from earlier work; remark: listed apart in the source
# [11] = cited from earlier work; remark: listed apart in the source
# [12] = cited from earlier work; remark: listed apart in the source
# [13] = 100 × times metal versus Simple, 50% NTA
# [14] = column after 50% NTA and citrate (500%), not the invention
molecule,measurement,setting,value
"[Mn+2] [Mn, manganese]",Bio-availability (Invention),[1],100%
same,Bio-availability,[2],31%
same,Difference,[2],−99.2%
"N[C@@H](CS)C(=O)O [C3H7O2NS, Cysteine]",complexing of Co^2+ in words,[3],extremely well
same,complexing of Ni^2+ in words,[4],extremely well
[Al] [Al],Bio-availability (Invention),[1]; 60% EDTA 60% phosphoric acids,100%
same,Difference,[2]; [13],9931.3%
same,Bio-availability,[2]; [14],100%
"OB(O)O [H3O3B, boric acid]",complexing of Mg^2+ in words,[5],only with difficulty
same,complexing of Ca^2+ in words,[6],only with difficulty
same,complexing of Fe^3+ in words,[7],very good
meso-malic acid,complexing of Al^3+ in words,[8],good
same,complexing of Fe^3+ in words,[7],good
"O=C(O)CC(O)(CC(=O)O)C(=O)O [HOOCCH2C(OH)(COOH)CH2COOH, Citric acid]",complexing of Co^2+ in words,[3],good
same,complexing of Ni^2+ in words,[4],good
same,complexing of Cu^2+ in words,[9],good
same,complexing of Fe^3+ in words,[7],good
"O=C(O)CS [CH2(SH)COOH, mercaptoacetic acid (thio-glycol acid)]",complexing of Fe^2+ in words,[10],very good
same,complexing of Mn^2+ in words,[11],good
same,complexing of Co^2+ in words,[3],very good
same,complexing of Fe^3+ in words,[7],excellent
same,complexing of Zn^2+ in words,[12],excellent
"CC(C)[C@H](N)C(=O)O [C5H11O2N, valine]",complexing of Ni^2+ in words,[4],very well
same,complexing of Cu^2+ in words,[9],very well
same,complexing of Zn^2+ in words,[12],very well
"NCCCC[C@H](N)C(=O)O [C6H14O2N2, lysine]",complexing of Ni^2+ in words,[4],very good
same,complexing of Cu^2+ in words,[9],very good
same,complexing of Zn^2+ in words,[12],well
"O=C[C@H](O)[C@@H](O)[C@@H](O)[C@H](O)C(=O)O [C6H10O7, galacturonic acid]",complexing of Fe^2+ in words,[10],very well
"N[C@@H](Cc1ccccc1)C(=O)O [C9H11O2N, phenylalanine]",complexing of Cu^2+ in words,[9],very good
same,complexing of Zn^2+ in words,[12],very good
"O=C(O)C(=O)O [(COOH)2, Oxalic acid]",complexing of Ca^2+ in words,[6],precipitates
same,complexing of Fe^2+ in words,[10],moderate
same,complexing of Co^2+ in words,[3],moderate
same,complexing of Ni^2+ in words,[4],moderate
same,complexing of Cu^2+ in words,[9],moderate
same,complexing of Fe^3+ in words,[7],good
same,complexing of Zn^2+ in words,[12],moderate
"O=P(O)(O)OP(=O)(O)O [H4P2O7, pyrophosphoric acid]",complexing of Mg^2+ in words,[5],very strongly
same,complexing of Mn^2+ in words,[11],very strongly
"[Mg+2] [Mg, magnesium]",Bio-availability (Invention),[1]; 60% EDTA 60% phosphoric acids,100%
same,Difference,[2]; [13],9698.1%
same,Bio-availability,[2]; [14],100%
"N[C@@H](Cc1c[nH]cn1)C(=O)O [C6H9O2N3, Histidine]",complexing of Ca^2+ in words,[6],poor
same,complexing of Mn^2+ in words,[11],good
same,complexing of Co^2+ in words,[3],very good
same,complexing of Ni^2+ in words,[4],very good
same,complexing of Cu^2+ in words,[9],very good
same,complexing of Al^3+ in words,[8],good
same,complexing of Zn^2+ in words,[12],very good
"[Zn] [Zn, zinc]",Bio-availability (Invention),[1],100%
same,bio-availability in words,[2]; 50% NTA,hardly bio-available at all
same,Difference,[2]; [13],−100.0%
same,Bio-availability,[2]; [14],0%
"O=C(O)c1ccccc1O [(C6H4)(OH)(COOH), Salicylic acid]",complexing of Mn^2+ in words,[11],very good
same,complexing of Co^2+ in words,[3],very good
same,complexing of Ni^2+ in words,[4],very good
same,complexing of Cu^2+ in words,[9],very good
same,complexing of Fe^3+ in words,[7],excellent
same,complexing of Zn^2+ in words,[12],good
"[Ca+2] [Ca, calcium]",Bio-availability (Invention),[1],100%
same,Difference,[2]; [13],38.2%
same,Bio-availability,[2]; [14],100%
"N[C@@H](CCC(=O)O)C(=O)O [C5H9O4N, Glutamic acid]",complexing of Ni^2+ in words,[4],very well
same,complexing of Cu^2+ in words,[9],very well
same,complexing of Zn^2+ in words,[12],not so well
"[Fe] [Fe, iron]",Bio-availability (Invention),[1]; 60% EDTA 60% phosphoric acids,100%
same,Difference,[2]; [13],4260.1%
same,Bio-availability,[2]; [14],100%
"CC(O)C(=O)O (centres unmarked) [CH3CH(OH)COOH, 2-hydroxypropionic acid (lactic acid)]",complexing of Fe^2+ in words,[10],somewhat more poorly
same,complexing of Co^2+ in words,[3],somewhat more poorly
same,complexing of Ni^2+ in words,[4],somewhat more poorly
same,complexing of Cu^2+ in words,[9],in small amounts
"CC(=O)CC(C)=O [CH3(C═O)CH2(C═O)CH3, acetylacetone]",complexing of Mg^2+ in words,[5],moderately well
same,complexing of Fe^2+ in words,[10],moderately well
same,complexing of Mn^2+ in words,[11],moderately well
same,complexing of Co^2+ in words,[3],moderately well
same,complexing of Ni^2+ in words,[4],well
same,complexing of Cu^2+ in words,[9],well
same,complexing of Al^3+ in words,[8],extremely well
same,complexing of Fe^3+ in words,[7],extremely well
"O=C(O)c1cc(=O)[nH]c(=O)[nH]1 [C5H4O4N2, Orotic acid]",complexing of Co^2+ in words,[3],able to complex
same,complexing of Ni^2+ in words,[4],able to complex
same,complexing of Cu^2+ in words,[9],able to complex
"CC(=O)C(=O)O [CH3(C═O)COOH, oxopropionic acid (pyruvic acid, pyruvate)]",complexing of Fe^2+ in words,[10],somewhat more poorly
same,complexing of Co^2+ in words,[3],somewhat more poorly
same,complexing of Ni^2+ in words,[4],somewhat more poorly
same,complexing of Cu^2+ in words,[9],in small amounts
CC(C)[C@H](N)C(=O)N[C@H](C(=O)O)C(C)C [L-valyl-L-valine] (H-Val-Val-OH),complexing of Ni^2+ in words,[4],very good
"O=C(O)CC(S)C(=O)O (centres unmarked) [HOOCCH2CH(SH)COOH, Mercaptomalic acid]",complexing of Ni^2+ in words,[4],well
same,complexing of Zn^2+ in words,[12],well
"O=C(O)CNCCNCC(=O)O [EDDA, Ethylendiimine diacetic acid]",complexing of Mn^2+ in words,[11],well
same,complexing of Co^2+ in words,[3],very well
same,complexing of Zn^2+ in words,[12],very well
"[Ni] [Ni, nickel]",Bio-availability (Invention),[1],100%
same,Bio-availability,[2],0%
same,Difference,[2],−100.0%
same,available share of the added volume,[2],2 ppm
same,bio-availability in words,[2],hardly bio-available at all
"[Co] [Co, cobalt]",Bio-availability (Invention),[1],100%
same,bio-availability in words,[2]; 50% NTA,hardly bio-available at all
same,Difference,[2]; [13],−100.0%
same,Bio-availability,[2]; [14],0%
"O=CC(=O)O [C2H2O3, oxoethanoic acid]",complexing of Fe^2+ in words,[10],somewhat more poorly
same,complexing of Co^2+ in words,[3],somewhat more poorly
same,complexing of Ni^2+ in words,[4],somewhat more poorly
same,complexing of Cu^2+ in words,[9],in small amounts
"O=C(O)CC(O)C(=O)O (centres unmarked) [HOOCCH2CH(OH)COOH, malic acid]",complexing of Al^3+ in words,[8],good
same,complexing of Fe^3+ in words,[7],good
"N[C@@H](CSSC[C@H](N)C(=O)O)C(=O)O [C6H12O4N2S2, cystine]",complexing of Ni^2+ in words,[4],very well
same,complexing of Cu^2+ in words,[9],excellent
same,complexing of Zn^2+ in words,[12],very well
"[Cu] [Cu, copper]",Bio-availability (Invention),[1]; 60% EDTA 60% phosphoric acids,0%
same,Difference,[2]; [13],−100.0%
same,Bio-availability,[2]; [14],0%
"C[C@@H](O)[C@H](N)C(=O)O [C4H9O3N, Threonine]",complexing of Co^2+ in words,[3],good
same,complexing of Cu^2+ in words,[9],very well
same,complexing of Zn^2+ in words,[12],good
"N[C@@H](CC(=O)O)C(=O)O [C4H7O4N, Aspartic acid]",complexing of Ni^2+ in words,[4],very well
same,complexing of Cu^2+ in words,[9],very well
same,complexing of Al^3+ in words,[8],only moderately
same,complexing of Zn^2+ in words,[12],very well
